In general, IC50 refers to the concentration that gives 50% inhibition. Read a low IC50 as greater potency in that assay.

Drawing on BindingDB's records for doi:10.1021/ml300128f (The Scripps Research Institute, 2012), this text covers IC50 for 2 molecules.

In the test the target is Elastase (Pseudomonas aeruginosa (strain ATCC 15692 / DSM 22644 / CIP 104116 / JCM 14847 / LMG 12228 / 1C / PRS 101 / PAO1), UniProt P14756). The test is described as follows: Antagonist activity at Pseudomonas aeruginosa LasB using Abz-Ala-Gly-Leu-Ala-p-Nitro-Benzyl-Amide as substrate incubated for 30 mins prior to substrate addition by FRET assay.
Elastase, sequence (P14756 whole entry): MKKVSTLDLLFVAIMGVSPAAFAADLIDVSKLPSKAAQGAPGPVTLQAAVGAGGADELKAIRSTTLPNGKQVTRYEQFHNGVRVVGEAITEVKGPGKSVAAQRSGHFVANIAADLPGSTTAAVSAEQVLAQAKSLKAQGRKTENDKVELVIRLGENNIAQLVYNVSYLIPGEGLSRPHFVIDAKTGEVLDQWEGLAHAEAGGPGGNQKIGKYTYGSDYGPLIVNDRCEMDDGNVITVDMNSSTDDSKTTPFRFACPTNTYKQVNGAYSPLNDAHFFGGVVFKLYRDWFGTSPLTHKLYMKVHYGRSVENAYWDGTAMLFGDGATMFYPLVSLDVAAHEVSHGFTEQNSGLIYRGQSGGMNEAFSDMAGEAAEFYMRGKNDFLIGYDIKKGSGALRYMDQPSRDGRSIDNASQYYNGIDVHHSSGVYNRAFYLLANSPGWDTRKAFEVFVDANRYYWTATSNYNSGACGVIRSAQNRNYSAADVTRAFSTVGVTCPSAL

As to `Cc1c(O)c(=S)ccn1C`, the IC50 is 80.6 µM. To `CCc1c(O)c(=S)ccn1CC` belongs 392 µM.
